Species: Rattus norvegicus
Experiment: Open TG-GATES - Regimen: Daily Repeat
Type: toxicity, organism-based, Sprague-Dawley
Design: regimen Daily Repeat, gender Male, age 6 weeks
Conditions: in vivo, po, route gavage; for Eos / Fbg / Hb / Ht / Lym / MCH / MCHC / MCV / Mono / PT / Plat / RBC / Ret / WBC / APTT / Bas: tissue Blood; for KIDNEY_L / KIDNEY_R / KIDNEY_TOTAL: tissue Kidney; for ALP / ALT / AST / BUN / CRE / DBIL / GLC / IP / K / LDH / Na / PL / RALB / TBIL / TC / TG / TP / gamma-GTP / Ca: tissue Plasma
[1] = 60 mg/kg, 72 h, dose level Middle, time 3 day
[2] = 60 mg/kg, […], dose level Middle, time 7 day
[3] = 60 mg/kg, […], dose level Middle, time 14 day
[4] = 60 mg/kg, […], dose level Middle, time 28 day
[5] = 200 mg/kg, 72 h, dose level High, time 3 day
[6] = 200 mg/kg, […], dose level High, time 7 day
[7] = 200 mg/kg, […], dose level High, time 14 day
[8] = 200 mg/kg, […], dose level High, time 28 day

Compound: CC(C)Cc1ccc(C(C)C(=O)O)cc1 (stereo not given) [IBUPROFEN]
- Eos [1]: 0.8%
- Fbg [1]: 340.8 mg/dL
- Hb [1]: 13.2 g/dL
- Ht [1]: 39%
- Lym [1]: 73.8%
- MCH [1]: 21 pg
- MCHC [1]: 33.9%
- MCV [1]: 61.9 fL
- Mono [1]: 2.6%
- PT [1]: 16 s
- Plat [1]: 115.2 x10_4/uL
- RBC [1]: 629.8 x10_4/ul
- Ret [1]: 6.7%
- WBC [1]: 115.1 x10_2/uL
- KIDNEY_L [1]: 0.9 g
- KIDNEY_R [1]: 1 g
- KIDNEY_TOTAL [1]: 1.9 g
- ALP [1]: 1603.6 IU/L
- ALT [1]: 45 IU/L
- AST [1]: 80.4 IU/L
- BUN [1]: 17.8 mg/dL
- CRE [1]: 0.2 mg/dL
- DBIL [1]: 0 mg/dL
- GLC [1]: 184.6 mg/dL
- IP [1]: 7.2 mg/dL
- K [1]: 4.4 meq/L
- LDH [1]: 237 IU/L
- Na [1]: 141.4 meq/L
- PL [1]: 138.4 mg/dL
- RALB [1]: 2.9 g/dL
- TBIL [1]: 0.002 mg/dL
- TC [1]: 73.4 mg/dL
- TG [1]: 130.8 mg/dL
- TP [1]: 5.4 g/dL
- gamma-GTP [1]: 1.4 IU/L
- TERMINAL_BW [2]: 253.3 g
- TERMINAL_BW [3]: 297.5 g
- TERMINAL_BW [4]: 379.8 g
- APTT [2]: 20.6 s
- Bas [2]: 0%
- Eos [2]: 1%
- Fbg [2]: 313.2 mg/dL
- Hb [2]: 12.9 g/dL
- Ht [2]: 37.4%
- Lym [2]: 68.6%
- MCH [2]: 21.3 pg
- MCHC [2]: 34.4%
- MCV [2]: 62 fL
- Mono [2]: 3%
- PT [2]: 15.8 s
- Plat [2]: 132.1 x10_4/uL
- RBC [2]: 605 x10_4/ul
- Ret [2]: 8.2%
- WBC [2]: 133.5 x10_2/uL
- APTT [3]: 23.6 s
- Bas [3]: 0%
- Eos [3]: 1%
- Fbg [3]: 326.2 mg/dL
- Ht [3]: 41%
- Lym [3]: 75.8%
- MCHC [3]: 33.9%
- MCV [3]: 61.4 fL
- Mono [3]: 2.8%
- PT [3]: 16.1 s
- RBC [3]: 670.4 x10_4/ul
- Ret [3]: 5.7%
- WBC [3]: 126.7 x10_2/uL
- APTT [4]: 24.2 s
- Bas [4]: 0%
- Eos [4]: 1.8%
- Fbg [4]: 333 mg/dL
- Hb [4]: 14.8 g/dL
- Ht [4]: 43.5%
- Lym [4]: 75.2%
- MCH [4]: 19 pg
- MCHC [4]: 34%
- MCV [4]: 56 fL
- Mono [4]: 1.8%
- Plat [4]: 102 x10_4/uL
- RBC [4]: 777.2 x10_4/ul
- Ret [4]: 2.8%
- WBC [4]: 93.9 x10_2/uL
- KIDNEY_L [2]: 1.1 g
- KIDNEY_R [2]: 1.1 g
- KIDNEY_TOTAL [2]: 2.1 g
- KIDNEY_L [3]: 1.2 g
- KIDNEY_R [3]: 1.2 g
- KIDNEY_TOTAL [3]: 2.4 g
- KIDNEY_L [4]: 1.3 g
- KIDNEY_R [4]: 1.4 g
- KIDNEY_TOTAL [4]: 2.7 g
- ALP [2]: 1376 IU/L
- ALT [2]: 44.2 IU/L
- AST [2]: 78 IU/L
- BUN [2]: 18.6 mg/dL
- CRE [2]: 0.2 mg/dL
- DBIL [2]: 0 mg/dL
- GLC [2]: 188.4 mg/dL
- IP [2]: 7.3 mg/dL
- K [2]: 4 meq/L
- LDH [2]: 187.6 IU/L
- Na [2]: 139.2 meq/L
- PL [2]: 154.4 mg/dL
- RALB [2]: 3 g/dL
- TBIL [2]: 0.004 mg/dL
- TC [2]: 75.6 mg/dL
- TG [2]: 136.4 mg/dL
- TP [2]: 5.4 g/dL
- gamma-GTP [2]: 2.4 IU/L
- ALP [3]: 1198.6 IU/L
- ALT [3]: 41.2 IU/L
- AST [3]: 69.2 IU/L
- CRE [3]: 0.2 mg/dL
- DBIL [3]: 0 mg/dL
- GLC [3]: 189.4 mg/dL
- IP [3]: 8.1 mg/dL
- K [3]: 4.1 meq/L
- LDH [3]: 147.6 IU/L
- Na [3]: 141 meq/L
- PL [3]: 154 mg/dL
- RALB [3]: 3 g/dL
- TBIL [3]: 0.004 mg/dL
- TC [3]: 76.6 mg/dL
- TG [3]: 139 mg/dL
- TP [3]: 5.6 g/dL
- gamma-GTP [3]: 2.2 IU/L
- ALP [4]: 1187.4 IU/L
- ALT [4]: 40.8 IU/L
- AST [4]: 67.8 IU/L
- BUN [4]: 20 mg/dL
- CRE [4]: 0.2 mg/dL
- Ca [4]: 10.4 mg/dL
- DBIL [4]: 0 mg/dL
- GLC [4]: 186.2 mg/dL
- IP [4]: 6.7 mg/dL
- K [4]: 3.9 meq/L
- LDH [4]: 150.6 IU/L
- Na [4]: 142.4 meq/L
- PL [4]: 147 mg/dL
- RALB [4]: 3.2 g/dL
- TBIL [4]: 0.002 mg/dL
- TC [4]: 71.8 mg/dL
- TG [4]: 139 mg/dL
- TP [4]: 6 g/dL
- gamma-GTP [4]: 2.6 IU/L
- TERMINAL_BW [5]: 206.3 g
- APTT [5]: 19.6 s
- Bas [5]: 0%
- Eos [5]: 1%
- Fbg [5]: 465.4 mg/dL
- Hb [5]: 9.9 g/dL
- Ht [5]: 29.9%
- Lym [5]: 66.2%
- MCH [5]: 21.1 pg
- MCHC [5]: 33.2%
- MCV [5]: 63.7 fL
- Mono [5]: 4.8%
- PT [5]: 15.1 s
- Plat [5]: 111.5 x10_4/uL
- RBC [5]: 472.2 x10_4/ul
- Ret [5]: 11%
- WBC [5]: 175.1 x10_2/uL
- KIDNEY_L [5]: 0.9 g
- KIDNEY_R [5]: 1 g
- KIDNEY_TOTAL [5]: 1.9 g
- ALP [5]: 841.6 IU/L
- ALT [5]: 34.4 IU/L
- AST [5]: 59.4 IU/L
- BUN [5]: 16.2 mg/dL
- CRE [5]: 0.1 mg/dL
- DBIL [5]: 0 mg/dL
- GLC [5]: 171 mg/dL
- IP [5]: 7.9 mg/dL
- K [5]: 4.5 meq/L
- LDH [5]: 122.6 IU/L
- Na [5]: 140.8 meq/L
- PL [5]: 147.2 mg/dL
- RALB [5]: 2.4 g/dL
- TBIL [5]: 0.004 mg/dL
- TC [5]: 86 mg/dL
- TG [5]: 116.2 mg/dL
- TP [5]: 4.8 g/dL
- gamma-GTP [5]: 1.6 IU/L
- TERMINAL_BW [6]: 228.5 g
- TERMINAL_BW [7]: 217 g
- TERMINAL_BW [8]: 319 g
- APTT [6]: 20.3 s
- Bas [6]: 0%
- Eos [6]: 1.4%
- Fbg [6]: 360.2 mg/dL
- Hb [6]: 9.5 g/dL
- Ht [6]: 29.8%
- Lym [6]: 65.6%
- MCH [6]: 21.1 pg
- MCV [6]: 66.4 fL
- Mono [6]: 3.6%
- PT [6]: 16.4 s
- Plat [6]: 198 x10_4/uL
- RBC [6]: 450 x10_4/ul
- Ret [6]: 20.9%
- WBC [6]: 213.7 x10_2/uL
- APTT [7]: 18.9 s
- Bas [7]: 0%
- Eos [7]: 1.2%
- Fbg [7]: 455.2 mg/dL
- Hb [7]: 6.4 g/dL
- Ht [7]: 23.2%
- Lym [7]: 56.6%
- MCH [7]: 17.8 pg
- MCHC [7]: 27.3%
- MCV [7]: 65.3 fL
- Mono [7]: 5%
- PT [7]: 16.5 s
- Plat [7]: 274.3 x10_4/uL
- RBC [7]: 354.6 x10_4/ul
- Ret [7]: 36.9%
- WBC [7]: 225.9 x10_2/uL
- APTT [8]: 19.1 s
- Bas [8]: 0%
- Eos [8]: 2.2%
- Fbg [8]: 434.8 mg/dL
- Hb [8]: 7.6 g/dL
- Lym [8]: 48.8%
- MCH [8]: 17.5 pg
- MCHC [8]: 28%
- MCV [8]: 62.7 fL
- Mono [8]: 3%
- PT [8]: 16.6 s
- Plat [8]: 195.7 x10_4/uL
- RBC [8]: 433.5 x10_4/ul
- WBC [8]: 190.5 x10_2/uL
- KIDNEY_L [6]: 1 g
- KIDNEY_R [6]: 1 g
- KIDNEY_TOTAL [6]: 2.1 g
- KIDNEY_L [7]: 1 g
- KIDNEY_R [7]: 1.1 g
- KIDNEY_TOTAL [7]: 2.1 g
- KIDNEY_L [8]: 1.4 g
- KIDNEY_R [8]: 1.4 g
- KIDNEY_TOTAL [8]: 2.8 g
- ALP [6]: 793 IU/L
- AST [6]: 63 IU/L
- BUN [6]: 18.6 mg/dL
- CRE [6]: 0.2 mg/dL
- DBIL [6]: 0 mg/dL
- GLC [6]: 179.6 mg/dL
- IP [6]: 7.8 mg/dL
- K [6]: 4.3 meq/L
- LDH [6]: 145 IU/L
- Na [6]: 140.4 meq/L
- PL [6]: 161.6 mg/dL
- RALB [6]: 2.7 g/dL
- TBIL [6]: 0.002 mg/dL
- TC [6]: 84 mg/dL
- TG [6]: 148.6 mg/dL
- TP [6]: 5.1 g/dL
- gamma-GTP [6]: 2 IU/L
- ALP [7]: 502.2 IU/L
- ALT [7]: 25.6 IU/L
- AST [7]: 55.2 IU/L
- BUN [7]: 15.4 mg/dL
- CRE [7]: 0.2 mg/dL
- Ca [7]: 10.2 mg/dL
- DBIL [7]: 0 mg/dL
- GLC [7]: 159.6 mg/dL
- IP [7]: 8.4 mg/dL
- K [7]: 4.4 meq/L
- LDH [7]: 145.8 IU/L
- Na [7]: 140.4 meq/L
- PL [7]: 167.4 mg/dL
- RALB [7]: 2.2 g/dL
- TBIL [7]: 0.004 mg/dL
- TC [7]: 81.2 mg/dL
- TG [7]: 239.2 mg/dL
- TP [7]: 4.8 g/dL
- gamma-GTP [7]: 2.6 IU/L
- ALP [8]: 493.2 IU/L
- ALT [8]: 30 IU/L
- AST [8]: 64 IU/L
- BUN [8]: 18 mg/dL
- CRE [8]: 0.2 mg/dL
- Ca [8]: 10.4 mg/dL
- DBIL [8]: 0 mg/dL
- GLC [8]: 164.2 mg/dL
- IP [8]: 7 mg/dL
- K [8]: 4.2 meq/L
- LDH [8]: 158.8 IU/L
- Na [8]: 141.2 meq/L
- PL [8]: 191.5 mg/dL
- RALB [8]: 2.4 g/dL
- TBIL [8]: 0 mg/dL
- TC [8]: 95 mg/dL
- TG [8]: 283.8 mg/dL
- TP [8]: 5.1 g/dL
- gamma-GTP [8]: 4.2 IU/L

From ChEMBL document CHEMBL3885861, “Open TG-GATES”
